In patent publication US7053122B2, “Therapeutic use of aryl amino acid derivatives” (Pfizer Inc, priority 2002, dated 2006):

System: α2δ subunit derived from porcine brain tissue
Assay: radioligand binding assay using [3H]gabapentin and the α2δ subunit
Settings: [3H]gabapentin radioligand
Source text: The biological activity of the compounds of the invention may be measured in a radioligand binding assay using [^3H]gabapentin and the α2δ subunit derived from porcine brain tissue (Gee N. S., Brown J. P., Dissanayake V. U. K., Offord J., Thurlow R., Woodruff G. N., J. Biol. Chem., 1996; 271:5776–5879). Results may be expressed in terms of μM or nM α2δ binding affinity.

SMILES	α2δ binding affinity
Cl.NCc1ccc(Cl)cc1C(=O)O [Example 1, 2-Aminomethyl-5-chloro-benzoic acid hydrochloride salt]	100 nM
Cl.NCc1cc(Cl)c(Cl)cc1C(=O)O [Example 2, 2-Aminomethyl-4,5-dichloro-benzoic acid hydrochloride salt]	435 nM
Cl.NCc1cccc(Cl)c1C(=O)O [Example 4, 2-Aminomethyl-6-chloro-benzoic acid hydrochloride salt]	383 nM
CC(N)c1ccccc1C(=O)O.Cl (centres unmarked) [Example 5, 2-(1-Amino-ethyl)-benzoic acid hydrochlorid salt]	270 nM
Cl.NCc1ccc(Cl)cc1-c1noc(=O)[nH]1 [Example 7, 3-(2-Aminomethyl-5-chloro-phenyl)-4-H-[1,2,4]loxadiazol-5-one hydrochloride salt]	8000 nM
